Results on three compounds are retold here after US10005793B2, “Bodipy dyes for biological imaging” (The General Hospital Corporation, priority 2012, dated 2018).

Experiment [1] deals with MDA-MB-231 pLVX H2B-mCherry cells. The experiment is described as follows: Live cell fluorescence imaging after 24 hours treatment. Type of experiment: cell-based. The conditions noted are these: 24 hours at 10 μM, 1 μM, and 100 nM; FIG. 5. On the procedure: To investigate the impact of dye lipophilicity in the in vivo imaging context, we further treated MD-MBA 231 cells (with an H2B mCherry fluorescent reporter to localize the nucleus) with each compound for 24 hours at 10 μM, 1 μM, and 100 nM. Cells (MDA-MB-231 pLVX H2B-mCherry) lines were cultured using sterile technique in plastic dishes with standard cell-growth media [RPMI 1640 1× (+) phenol red, (+) 10% FBS, (+) 1% Pen-Strep]. Culture incubation during and in between experiments was performed in a sterile incubator (37° C., 5% CO2). All cultures used in imaging studies were confirmed to be mycoplasma-free prior to experimentation using a commercially available detection kit (MycoAlert, Lonza).
This property thereby limits non-specific staining effects that could have a confounding effect small-molecule imaging applications.

Another experiment has as its system MD-MBA 231 cell line. The experiment is described as follows: Wash-out experiment, live-cell imaging. The conditions noted are these: 30 minutes incubation with 10 µM compound, three 30 minute washes; FIG. 6. In kind it is cell-based. Here is the method:
Further validation of the dyes' low-lipophilicity was achieved via a wash-out experiment with the MD-MBA 231 cell line. In this experiment, we investigated the ease of washing out the mono-alkoxy fluorophores within 30 minutes (e.g., within 15 minutes of the start of incubation).
Two days prior to imaging, cells were seeded at 20,000 cells/well on a 96-well Glass Bottom Microwell plate (MatriPlate, MGB096-1-2-LG-L) treated with 1× Attachment Factor (0.1% gelatin, Gibco). For these experiments, phenol-red free imaging media was used [RPMI 1640 1× (+) 10% FBS]. The day of imaging, each well was incubated for 30 minutes with […] of the title compound suspended in cell imaging media (final DMSO content=0.1%). Subsequently three washes were performed. Each wash consisted of removing spent media, adding fresh imaging media, and incubating the cells for 30 minutes. After the final wash, the media was aspirated, a thin layer of cell imaging media was added, and wells were rapidly imaged.
Live-cell imaging was performed on a Zeiss Axiovert 100M inverted epifluorescence microscope with a 40× objective. Per region of interest, a bright field view was acquired as well as GFP, TexasRed fluorescence channels.

`CO[B-]1(F)n2c(C)cc(C)c2C(C)=C2C(C)=CC(C)=[N+]21` (stereo not shown) [AMC1028, 5-fluoro-5-methoxy-1,3,7,9,10-pentamethyl-5H-dipyrrolo[1,2-c:2′,1′-f][1,3,2]diazaborinin-4-ium-5-uide]: in experiment [1], the “staining pattern of live cells” value is on record as “diffuse fluorescent signal”. The same measure, in the same setting: in the case of `CC1=CC(C)=[N+]2C1=C(C)c1c(C)cc(C)n1[B-]2(F)OCCO` (stereo not shown) [AMC1029, 5-fluoro-5-(2-hydroxyethoxy)-1,3,7,9,10-pentamethyl-5H-dipyrrolo[1,2-c:2′,1′-f][1,3,2]diazaborinin-4-ium-5-uide] it was “diffuse fluorescent signal”. For `CC1=CC(C)=[N+]2C1=C(C)c1c(C)cc(C)n1[B-]2(F)F` [AMC1094, 1,3,5,7,8-Pentamethyl BODIPY], the “staining pattern of live cells” value in experiment [1] was “significant non-specific staining of cellular compartments”. Also, the staining after wash-out entry in the experiment on MD-MBA 231 cell line was “persistent non-specific staining”.
